In US20180133283A1, “METHOD AND COMPOSITIONS FOR SYNCHRONIZING TIME OF INSEMINATION IN GILTS” (JBS UNITED ANIMAL HEALTH II LLC, priority 2012, published 2018):

Columns and labels:
Format in all cases: in vivo, swine
gilts [1] = assay: Example 1: ovulation monitoring by transrectal ultrasonography after 200 mcg triptorelin gel intravaginally at 96, 120 or 144 h after MATRIX withdrawal; details: raw averages, PTK 1-07 (rep 3), 200 mcg T
Method: (§1) All gilts were individually fed MATRIX® as a top-dress for 14 days at the recommended rate of 15 mg/gilt/day. Gilts were withdrawn from MATRIX® feeding (last top feed in the morning on Day 0) and allotted to treatments. Controls were treated with a 1.2% methylcellulose gel formulation without triptorelin at 96 hours following MATRIX® withdrawal (last top-dress). The remaining gilts received 200 mcg triptorelin, as the acetate, in a 1.2% methylcellulose gel formulation intravaginally at various times after MATRIX® withdrawal. The four treatments were: 1) vehicle gel (VG) treatment at 96 hours after MATRIX® withdrawal, 2) triptorelin gel (TG) treatment at 96 hours after MATRIX® withdrawal, 3) TG treatment at 120 hours after MATRIX® withdrawal and 4) TG treatment at 144 hours after MATRIX® withdrawal. All gilts were monitored for their estrous and ovulatory status as described below. Gilts included in replicate 1 were selected from terminal line commercial production gilts located in grow/finish barns. Sexual maturity, as indicated by one or more estrous periods, was not verified prior to the start of MATRIX® feeding. Gilts included in replicate 2 were selected from a maternal line gilt population. Sexual maturity was verified by at least one estrous period verified and recorded prior to starting MATRIX® feeding.
The ovulatory status of all gilts was monitored by transrectal ultrasonography. For replicate one, ovulation was monitored two times on Day 5, then three times a day from Day 6 to Day 8. For replicate two, ovulation was monitored three times a day from Day 5 to Day 8. An Aloka 500 ultrasound machine with a 7.5 MHz linear array transducer attached to a fixed-angle PVC stabilizing rod to facilitate insertion into the rectum was used for this purpose. The transducer and PVC rod were coated with a gynecological lubricant and gently inserted into the rectum until the ovaries were visualized, one at a time. The diameters of the three largest follicles were recorded (to the nearest 0.1 mm) at each scanning. A gilt was declared to have ovulated when the number of large follicles (≥6.5 mm) fell to less than 3.
(§2) A single 2 mL dose of triptorelin gel or vehicle gel was deposited within approximately 1-2 cm posterior to the cervix with a catheter similar to those used for artificial insemination. The dose was delivered using a standard multi-dose applicator attached to the catheter. A new disposable sheath, which surrounds the catheter, was used for each gilt.
Data were analyzed using the Mixed Models procedures of SAS. Models included main effects of time of treatment following the last feeding of MATRIX®, replicate, and treatment by replicate interaction. Differences between treatments were tested on least squares means estimates using the T test at P<0.05. Data for analysis were tested for assumptions of data normality.

gilts [2] = assay: Example 1: estrus observation (boar exposure, back pressure) after triptorelin gel; details: raw averages; PTK 1-07 (rep 3); 200 mcg T at 120 h
Method: as §1
For post-treatment estrus detection, gilts were housed in individual pens. […]

gilts [3] = assay: Example 5: ovulation monitoring by transrectal ultrasonography after 100, 200 or 400 mcg triptorelin gel at 120 h after MATRIX withdrawal; details: for Percentage ovulated by 48 hours: catheterized subpopulation; for % of Sows Ovulating: raw averages, PTK 2-07
Method: All gilts were individually fed MATRIX® as a top-dress for 14 or 15 days at the recommended rate of 15 mg/gilt/day. Gilts were withdrawn from MATRIX® feeding (last top-dress in the morning on Day 0) and allocated to each of the following treatments. Controls were vehicle gel treated (vehicle gel without triptorelin) at 120 (+/−2) hours following MATRIX® withdrawal (last top dress). The other gilts were given 100, 200 or 400 mcg triptorelin as the acetate in a methylcellulose gel formulation 120 (+/−2) hours following MATRIX® withdrawal. The four treatments were:
1. Vehicle gel (VG): vehicle gel without triptorelin at 120 (+/−2) hours after MATRIX® withdrawal.
2. TG 100: 100 mcg (2 mL 50 mcg/mL) triptorelin gel at 120 (+/−2) hours after MATRIX® withdrawal.
3. TG 200: 200 mcg (2 mL 100 mcg/mL) triptorelin gel at 120 (+/−2) hours after MATRIX® withdrawal.
4. TG 400: 400 mcg (2 mL 200 mcg/mL) triptorelin gel at 120 (+/−2) hours after MATRIX® withdrawal.
Ovulation was monitored twice on Day 5 (8 hours and 16 hours post-treatment) and every 8 hours on Day 6 and Day 7 or until ovulation was confirmed or 176 hours following last MATRIX® feeding. The ovulatory status of all gilts was monitored by transrectal ultrasonography. An Aloka 500 ultrasound machine is used for this purpose, with a 7.5 MHz linear array transducer attached to a fixed-angle PVC stabilizing rod to facilitate insertion into the rectum. The transducer and PVC rod are coated with a gynecological lubricant and gently inserted into the rectum until the ovaries can be visualized, one at a time. The diameters of the three largest follicles were recorded (to the nearest 0.1 mm) at each scanning. A gilt was declared to have ovulated when the number of large follicles 6.5 mm) fell to less than 3.
as §2

gilts [4] = assay: Example 5: estrus observation; details: raw averages, PTK 2-07
Method: For post-treatment estrus detection, gilts were housed in individual pens. Boars were housed in separate rooms, and/or at least 12 m away and downwind. To elicit signs of estrus, a mature boar was walked slowly in the alley in front of the gilts' crates, exposing each test gilt to visual, auditory and olfactory signals from the boar for up to 5 minutes. In keeping with standard practice at commercial farms, while the boar was near the front of the gilt's crate, estrus was tested by an experienced person applying back pressure to the midsection of the gilt combined with side rubbing. Estrus was confirmed when a gilt stood rigidly to the back pressure, with no vocalization and with some indication of an ear reflex. Gilts were not exposed to boars during the first three days after withdrawal of MATRIX® (Day 0 to Day 2). Estrus detection was performed daily on all gilts from Day 3 to Day 7.

serum LH = assay: Example 5: blood collection and serum LH analysis (LH surge); details: for Gilts, which displayed a LH surge: number of gilts
Method: A catheter was inserted non-surgically into the jugular vein (Kraeling et al. 1982) of a subpopulation of gilts in each treatment group (vehicle gel, n=8; 100 mcg triptorelin, n=6; 200 mcg triptorelin, n=7 and 400 mcg triptorelin, n=6). Ten mL blood samples were collected every 15 minutes for one hour prior to treatment, immediately following treatment (0) and at 0.5, 1, 2, 4, 6, 12, 18, 24, 36 and 48 hours after treatment. Blood samples were maintained at 4° C. until centrifuged at 800×g for 15 minutes within 12 hours of collection. The resulting serum was stored frozen until assayed for LH using validated procedures for pig serum (Kesner et al., 1987 and Kraeling et al., 1982). Onset, duration, and magnitude of the LH surge were analyzed. The LH data were analyzed with the General Linear Models procedure of SAS. Differences between treatments were tested on least squares means estimates using the T test at P<0.05. Onset of the LH surge is when serum LH concentration is greater than or equal to two standard deviations of the mean of the pre-treatment serum LH concentrations. Duration of the LH surge is the period between onset and when serum LH concentration is again less than or equal to two standard deviations of the mean of the pre-treatment serum LH concentrations. Magnitude of the LH surge is the maximum serum LH concentration reached during the LH surge.

[5] = relative to time of triptorelin gel treatment, 200 mcg T

## CC(C)C[C@H](NC(=O)[C@@H](Cc1c[nH]c2ccccc12)NC(=O)[C@H](Cc1ccc(O)cc1)NC(=O)[C@H](CO)NC(=O)[C@H](Cc1c[nH]c2ccccc12)NC(=O)[C@H](Cc1c[nH]cn1)NC(=O)[C@@H]1CCC(=O)N1)C(=O)N[C@@H](CCCNC(=N)N)C(=O)N1CCC[C@H]1C(=O)NCC(N)=O [T, pGlu-His-Trp-Ser-Tyr-D-Trp-Leu-Arg-Pro-Gly-NH2]
Gilts [1]; 128 h post-MATRIX, 8 h post-T
  % of Sows Ovulating: 0.0%
Gilts [1]; 136 h post-MATRIX, 16 h post-T
  % of Sows Ovulating: 10.0%
Gilts [1]; 144 h post-MATRIX, 24 h post-T
  % of Sows Ovulating: 30.0%
Gilts [1]; 152 h post-MATRIX, 32 h post-T
  % of Sows Ovulating: 70.0%
Gilts [1]; 160 h post-MATRIX, 40 h post-T
  % of Sows Ovulating: 80.0%
Gilts [1]; 168 h post-MATRIX, 48 h post-T
  % of Sows Ovulating: 90.0%
Gilts [1]; 176 h post-MATRIX, 56 h post-T
  % of Sows Ovulating: 100.0%
Gilts [2]
  Estrous Expression (%): 100.0%
Gilts [3]; 100 mcg T (n = 6)
  Percentage ovulated by 48 hours: 100%
Gilts [3]; 200 mcg T (n = 7)
  Percentage ovulated by 48 hours: 100%
Gilts [3]; 400 mcg T (n = 6)
  Percentage ovulated by 48 hours: 100%
Gilts [3]; 100 mcg T, 128 h post-MATRIX, 8 h post-T
  % of Sows Ovulating: 0.0%
Gilts [3]; 100 mcg T, 136 h post-MATRIX, 16 h post-T
  % of Sows Ovulating: 5.0%
Gilts [3]; 100 mcg T, 144 h post-MATRIX, 24 h post-T
  % of Sows Ovulating: 20.0%
Gilts [3]; 100 mcg T, 152 h post-MATRIX, 32 h post-T
  % of Sows Ovulating: 30.0%
Gilts [3]; 100 mcg T, 160 h post-MATRIX, 40 h post-T
  % of Sows Ovulating: 60.0%
Gilts [3]; 100 mcg T, 168 h post-MATRIX, 48 h post-T
  % of Sows Ovulating: 95.0%
Gilts [3]; 100 mcg T, 176 h post-MATRIX, 56 h post-T
  % of Sows Ovulating: 100.0%
Gilts [3]; 200 mcg T, 128 h post-MATRIX, 8 h post-T
  % of Sows Ovulating: 0.0%
Gilts [3]; 200 mcg T, 136 h post-MATRIX, 16 h post-T
  % of Sows Ovulating: 0.0%
Gilts [3]; 400 mcg T, 128 h post-MATRIX, 8 h post-T
  % of Sows Ovulating: 4.5%
Gilts [3]; 400 mcg T, 136 h post-MATRIX, 16 h post-T
  % of Sows Ovulating: 9.1%
Gilts [3]; 400 mcg T, 168 h post-MATRIX, 48 h post-T
  % of Sows Ovulating: 100.0%
Gilts [3]; 400 mcg T, 176 h post-MATRIX, 56 h post-T
  % of Sows Ovulating: 100.0%
Gilts [4]; 100 mcg T at 120 h
  Estrous Expression (%): 75.0%
Gilts [4]; 200 mcg T at 120 h
  Estrous Expression (%): 81.0%
Serum LH; 200 mcg T
  Duration of LH surge: 18
Serum LH; LS mean ± SE, relative to time of triptorelin gel treatment, 100 mcg T
  Onset of LH surge: 4 ± 3
Serum LH; LS mean ± SE, relative to time of triptorelin gel treatment, 400 mcg T
  Onset of LH surge: 4 ± 4
Serum LH; 100 mcg T (n = 6)
  Gilts, which displayed a LH surge: 4
Serum LH; 200 mcg T (n = 7)
  Gilts, which displayed a LH surge: 1
Serum LH; 400 mcg T (n = 6)
  Gilts, which displayed a LH surge: 5
Serum LH; [5]
  Onset of LH surge: 0.5
  Time of maximum LH conc.: 4 h
